Source: US10138247B2, “7-(morpholin-4-yl)pyrazole[1,5-A]pyrimidine derivatives as PI3 kinase inhibitors” (priority 2015, dated 2018)
Where two headings read alike, the source gives them in different places.

Tests used:
PI3Kα = target: T1, PI3Kα (Homo sapiens, UniProt P42336); assay: PI3K kinases inhibition in vitro (ADP-Glo), PI3Kα; type: biochemical
T1 construct: purchased Carna Biosciences
Protocol: (§1) Tested compounds were dissolved in 100% DMSO, and thus obtained solutions were serially diluted in 1× reaction buffer. Recombinant kinase was diluted in a reaction mixture comprising 5× reaction buffer, substrate (1 mM sodium diacetate 4,5-bisphosphate phosphatydylinositol (PIP2) solution in 40 mM Tris buffer), and water. To the wells in a 96-wells plate, 5 μl of compounds solutions and 15 μl of the kinase solution in the reaction mixture were added. To initiate interaction of tested chemical compounds with the enzyme, the plate was incubated for 10 minutes at suitable temperature in a plate thermostat with orbital shaking at 600 rpm. Negative control wells contained all above reagents except tested compound and kinase, and positive control wells contained all above reagents except tested compounds. Enzymatic reaction was initiated by adding 5 μl of 150 μM ATP solution, subsequently the plate was incubated for 1 hour at 25° C. or 30° C. (depending on PI3K isoform tested) in plate thermostat with orbital shaking of the plate contents at 600 rpm. Reaction conditions are presented below in Table 12.
(§2) Detection of ADP formed in the enzymatic reaction was then performed using ADP-Glo Kinase Assay (Promega). To the wells of a 96-well plate 25 μl of ADP-Glo Reagent were added, and the plate was incubated for 40 minutes at 25° C. in a plate thermostat with orbital shaking at 600 rpm. Then to the wells of 96-well plate 50 μl of Kinase Detection Reagent were added and the plate was incubated for 40 minutes at 25° C. in a plate thermostat with orbital shaking at 600 rpm. After incubation time, luminescence intensity in a well was measured by Victor Light luminometer (Perkin Elmer, Inc.).
(§3) IC50 values were determined on the basis of luminescence intensity measurements in wells containing tested compounds at different concentrations and in control wells. These values were calculated with Graph Pad 5.03 software by fitting the curve using non-linear regression. Each compound was tested at least in quadruplicates (4 wells) on two 96-well plates using at least 4 wells of each of the controls.

PI3Kβ = target: T2, PI3Kβ (Homo sapiens, UniProt P42338); assay: PI3K kinases inhibition in vitro (ADP-Glo), PI3Kβ; type: biochemical
T2 construct: purchased Merck Millipore
Protocol: as §1, §2, §3

PI3Kγ = target: T3, PI3Kγ (Homo sapiens, UniProt P48736); assay: PI3K kinases inhibition in vitro (ADP-Glo), PI3Kγ; type: biochemical
T3 construct: purchased Merck Millipore
Protocol: as §1, §2, §3

PI3Kδ = target: T4, PI3Kδ (Homo sapiens, UniProt O00329); assay: PI3K kinases inhibition in vitro (ADP-Glo), PI3Kδ; type: biochemical
T4 construct: purchased Merck Millipore
Protocol: as §1, §2, §3

[1] = Pharmacokinetics testing in vivo, oral, rats; conditions: rat, Wistar rats, oral 30 mg/kg, serum
Protocol: Tests were performed on about 12 weeks old Wistar rats, weight 250-300 g. Rats were given orally tested compounds at 30 mg/kg m.c. Blood samples were collected from animals for analysis in 6 time points—30 min, 1 h, 2 h, 4 h, 7 h, and 12 h from administration of the compound. Blood was collected to tubes with K2EDTA and centrifuged for 15 min, 2000×g, at room temperature to separate serum. Collected serum samples were maintained at −20° C. before analysis. Each of the compounds was tested on a group of 5 animals.
Serum concentrations of tested compounds were determined by spectrophotometry. For each of tested compounds, time to reach maximum serum concentration (Tmax), maximum concentration (Cmax), and area under the curve (AUC) were determined.

[2] = averaged, recombinant kinase, 30° C., 1 h, PIP2 50 μM, read-out: PI3Kγ IC50
[3] = averaged, recombinant kinase, 25° C., 1 h, PIP2 30 μM, read-out: PI3Kδ IC50
[4] = averaged, recombinant kinase, 30° C., 1 h, PIP2 50 μM, read-out: PI3Kβ IC50

T2 sequence (P42338 whole entry): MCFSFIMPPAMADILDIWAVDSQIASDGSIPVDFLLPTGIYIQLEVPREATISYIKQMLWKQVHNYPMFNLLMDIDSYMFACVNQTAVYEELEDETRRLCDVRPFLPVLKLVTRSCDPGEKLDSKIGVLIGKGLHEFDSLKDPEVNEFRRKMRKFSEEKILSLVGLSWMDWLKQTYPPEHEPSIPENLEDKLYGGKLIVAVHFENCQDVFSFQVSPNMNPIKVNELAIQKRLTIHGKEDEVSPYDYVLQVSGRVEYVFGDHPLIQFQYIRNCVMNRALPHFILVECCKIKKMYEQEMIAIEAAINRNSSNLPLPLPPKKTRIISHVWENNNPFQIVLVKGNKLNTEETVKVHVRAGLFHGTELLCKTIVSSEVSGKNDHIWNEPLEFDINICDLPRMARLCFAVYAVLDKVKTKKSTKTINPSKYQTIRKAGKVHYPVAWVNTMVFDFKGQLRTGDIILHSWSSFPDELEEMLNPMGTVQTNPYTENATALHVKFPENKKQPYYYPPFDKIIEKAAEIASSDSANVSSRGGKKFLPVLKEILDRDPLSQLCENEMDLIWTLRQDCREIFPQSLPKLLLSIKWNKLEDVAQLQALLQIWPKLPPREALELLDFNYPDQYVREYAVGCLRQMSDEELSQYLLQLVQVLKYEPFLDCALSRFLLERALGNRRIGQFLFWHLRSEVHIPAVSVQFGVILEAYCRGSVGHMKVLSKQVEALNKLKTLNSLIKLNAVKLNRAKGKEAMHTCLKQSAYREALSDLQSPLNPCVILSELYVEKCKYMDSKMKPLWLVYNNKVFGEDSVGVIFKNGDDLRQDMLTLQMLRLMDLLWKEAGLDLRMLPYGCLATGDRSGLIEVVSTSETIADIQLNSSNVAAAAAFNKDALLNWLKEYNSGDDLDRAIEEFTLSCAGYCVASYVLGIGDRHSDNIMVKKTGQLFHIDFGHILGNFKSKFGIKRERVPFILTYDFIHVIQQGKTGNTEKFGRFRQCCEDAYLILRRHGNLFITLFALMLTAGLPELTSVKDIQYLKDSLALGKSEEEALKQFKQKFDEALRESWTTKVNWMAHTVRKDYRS
T2 sequence (P27986 whole entry, further chain): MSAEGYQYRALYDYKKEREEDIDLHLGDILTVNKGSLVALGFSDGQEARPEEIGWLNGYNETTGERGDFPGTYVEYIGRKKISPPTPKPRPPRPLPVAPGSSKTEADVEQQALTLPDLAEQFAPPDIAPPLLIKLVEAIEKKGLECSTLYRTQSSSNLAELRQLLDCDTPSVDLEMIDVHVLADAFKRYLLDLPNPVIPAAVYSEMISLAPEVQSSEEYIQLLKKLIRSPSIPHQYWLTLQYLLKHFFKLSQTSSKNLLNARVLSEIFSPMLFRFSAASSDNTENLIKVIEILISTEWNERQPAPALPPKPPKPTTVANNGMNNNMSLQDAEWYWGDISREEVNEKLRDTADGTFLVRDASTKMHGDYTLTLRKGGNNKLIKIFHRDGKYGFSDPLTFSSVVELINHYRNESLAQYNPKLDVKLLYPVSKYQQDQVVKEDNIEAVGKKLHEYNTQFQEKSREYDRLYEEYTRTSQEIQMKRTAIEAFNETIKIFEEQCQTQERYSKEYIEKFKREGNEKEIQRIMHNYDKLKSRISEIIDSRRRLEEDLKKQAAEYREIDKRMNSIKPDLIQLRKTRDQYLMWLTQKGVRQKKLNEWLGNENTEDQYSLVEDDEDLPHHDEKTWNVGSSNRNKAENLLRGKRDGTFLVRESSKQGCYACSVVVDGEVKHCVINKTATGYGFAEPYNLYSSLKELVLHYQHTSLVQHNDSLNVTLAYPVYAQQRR
T4 sequence (O00329 whole entry): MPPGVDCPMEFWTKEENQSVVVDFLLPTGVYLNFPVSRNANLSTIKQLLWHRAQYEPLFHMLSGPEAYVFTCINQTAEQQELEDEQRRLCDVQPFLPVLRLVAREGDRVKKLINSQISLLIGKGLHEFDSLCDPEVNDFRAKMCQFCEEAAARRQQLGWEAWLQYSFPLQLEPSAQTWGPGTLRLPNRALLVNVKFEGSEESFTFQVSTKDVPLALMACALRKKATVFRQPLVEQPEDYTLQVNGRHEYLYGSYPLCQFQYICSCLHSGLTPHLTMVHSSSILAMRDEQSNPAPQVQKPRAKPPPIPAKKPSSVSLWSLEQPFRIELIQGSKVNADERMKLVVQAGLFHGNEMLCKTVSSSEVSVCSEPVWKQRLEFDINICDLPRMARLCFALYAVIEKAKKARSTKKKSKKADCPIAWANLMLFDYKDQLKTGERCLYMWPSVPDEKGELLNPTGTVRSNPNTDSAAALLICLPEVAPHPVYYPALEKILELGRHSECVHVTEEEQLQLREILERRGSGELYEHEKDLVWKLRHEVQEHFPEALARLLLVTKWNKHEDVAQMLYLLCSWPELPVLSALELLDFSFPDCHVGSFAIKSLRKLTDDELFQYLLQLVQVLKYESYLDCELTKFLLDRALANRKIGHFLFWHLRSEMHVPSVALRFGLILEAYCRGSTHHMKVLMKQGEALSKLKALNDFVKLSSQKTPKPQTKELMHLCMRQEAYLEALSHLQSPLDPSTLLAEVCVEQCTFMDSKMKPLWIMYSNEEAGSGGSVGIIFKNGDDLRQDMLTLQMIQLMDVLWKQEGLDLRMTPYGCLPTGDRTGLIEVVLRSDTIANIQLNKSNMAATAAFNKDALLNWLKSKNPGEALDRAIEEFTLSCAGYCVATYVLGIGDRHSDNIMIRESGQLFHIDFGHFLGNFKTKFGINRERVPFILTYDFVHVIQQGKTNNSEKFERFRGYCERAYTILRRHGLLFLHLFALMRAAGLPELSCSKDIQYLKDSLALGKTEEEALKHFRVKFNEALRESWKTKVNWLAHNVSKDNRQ
T4 sequence (P27986 whole entry, further chain): as the sequence (P27986 whole entry, further chain) above
T1 sequence (P42336 whole entry): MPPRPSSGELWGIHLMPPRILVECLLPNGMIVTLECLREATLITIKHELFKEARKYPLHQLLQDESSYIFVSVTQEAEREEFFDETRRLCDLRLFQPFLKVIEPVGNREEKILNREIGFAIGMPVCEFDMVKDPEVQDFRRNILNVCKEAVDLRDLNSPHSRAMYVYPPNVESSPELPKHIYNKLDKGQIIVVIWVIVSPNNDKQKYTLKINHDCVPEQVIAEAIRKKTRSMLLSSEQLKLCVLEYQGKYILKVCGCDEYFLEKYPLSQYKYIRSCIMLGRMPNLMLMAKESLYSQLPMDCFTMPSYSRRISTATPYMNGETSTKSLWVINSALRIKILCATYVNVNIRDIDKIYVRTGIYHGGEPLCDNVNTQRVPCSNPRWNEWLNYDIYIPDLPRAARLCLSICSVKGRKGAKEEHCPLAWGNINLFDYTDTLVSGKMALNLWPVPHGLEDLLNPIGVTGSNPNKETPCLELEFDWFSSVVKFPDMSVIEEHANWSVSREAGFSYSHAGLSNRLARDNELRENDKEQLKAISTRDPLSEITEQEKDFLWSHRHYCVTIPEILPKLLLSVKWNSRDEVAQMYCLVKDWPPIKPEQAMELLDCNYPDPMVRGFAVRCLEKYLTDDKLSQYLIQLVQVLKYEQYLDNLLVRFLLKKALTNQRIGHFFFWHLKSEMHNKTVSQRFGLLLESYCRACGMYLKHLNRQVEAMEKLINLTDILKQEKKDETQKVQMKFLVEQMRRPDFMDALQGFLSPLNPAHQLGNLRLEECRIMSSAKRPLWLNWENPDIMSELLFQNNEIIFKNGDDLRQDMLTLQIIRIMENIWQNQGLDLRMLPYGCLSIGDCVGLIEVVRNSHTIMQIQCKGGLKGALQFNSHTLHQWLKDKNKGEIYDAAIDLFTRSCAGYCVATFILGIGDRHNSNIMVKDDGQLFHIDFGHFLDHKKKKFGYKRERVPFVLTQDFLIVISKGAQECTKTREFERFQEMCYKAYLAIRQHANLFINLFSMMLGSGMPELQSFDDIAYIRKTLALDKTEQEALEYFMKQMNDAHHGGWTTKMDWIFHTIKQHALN
T1 sequence (P27986 whole entry partner): as the sequence (P27986 whole entry, further chain) above
T3 sequence (P48736 whole entry): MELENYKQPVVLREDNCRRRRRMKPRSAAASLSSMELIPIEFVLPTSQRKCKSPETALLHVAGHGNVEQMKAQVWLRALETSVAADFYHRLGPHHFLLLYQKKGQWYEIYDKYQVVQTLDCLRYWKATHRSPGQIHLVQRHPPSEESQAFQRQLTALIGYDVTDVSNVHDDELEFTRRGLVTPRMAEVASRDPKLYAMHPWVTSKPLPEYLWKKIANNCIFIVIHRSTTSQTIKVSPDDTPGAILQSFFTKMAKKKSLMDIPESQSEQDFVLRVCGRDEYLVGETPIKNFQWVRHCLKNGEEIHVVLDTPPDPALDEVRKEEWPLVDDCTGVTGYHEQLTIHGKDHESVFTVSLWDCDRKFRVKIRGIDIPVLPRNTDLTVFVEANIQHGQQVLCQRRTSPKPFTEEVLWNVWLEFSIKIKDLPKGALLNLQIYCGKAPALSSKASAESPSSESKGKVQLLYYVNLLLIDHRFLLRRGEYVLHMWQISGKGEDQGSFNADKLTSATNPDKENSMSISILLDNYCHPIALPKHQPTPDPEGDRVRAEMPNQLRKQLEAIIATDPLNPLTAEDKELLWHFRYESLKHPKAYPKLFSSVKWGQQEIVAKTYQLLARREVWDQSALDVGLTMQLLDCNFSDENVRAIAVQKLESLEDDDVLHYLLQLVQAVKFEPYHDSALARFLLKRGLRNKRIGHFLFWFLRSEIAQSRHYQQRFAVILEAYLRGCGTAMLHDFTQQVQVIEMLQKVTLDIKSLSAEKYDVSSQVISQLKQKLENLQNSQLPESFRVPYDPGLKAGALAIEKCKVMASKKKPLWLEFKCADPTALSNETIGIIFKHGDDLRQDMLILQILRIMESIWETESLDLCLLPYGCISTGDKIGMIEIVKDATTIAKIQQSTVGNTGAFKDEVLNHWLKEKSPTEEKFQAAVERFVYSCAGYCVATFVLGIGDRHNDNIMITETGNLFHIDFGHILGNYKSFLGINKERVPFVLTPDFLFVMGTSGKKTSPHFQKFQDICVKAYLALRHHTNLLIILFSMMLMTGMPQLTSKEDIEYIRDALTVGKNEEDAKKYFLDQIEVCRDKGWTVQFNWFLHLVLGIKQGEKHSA

Row | SMILES | IC50 (PI3Kα) | IC50 (PI3Kβ) | IC50 (PI3Kγ) | IC50 (PI3Kδ) | AUC [1] | Cmax [1] | Tmax [1] | IC50 (PI3Kγ; [2]) | IC50 (PI3Kδ; [3]) | IC50 (PI3Kβ; [4])
1 | CC(C)(O)C1CCN(Cc2cc3nc(-c4cccc5[nH]ccc45)cc(N4CCOCC4)n3n2)CC1 [Example 4, 2-((4-(2-hydroxypropan-2-yl)-piperidin-1-yl)methyl)-5-(1H-indol-4-yl)-7-(morpholin-4-yl)pyrazolo [1,5-a]pyrimidine] | > 1 µM | > 1 µM | > 1 µM | < 0.1 µM | 3580 ng·h/mL | 600 ng/mL | 2 h |  |  | 
2 | CC(C)(C)N1CCN(Cc2cc3nc(-c4cccc5[nH]ccc45)cc(N4CCOCC4)n3n2)CC1 [Example 8, 2-((4-tert-butylpiperazin-1-yl)-methyl)-5-(1H-indol-4-yl)-7-(morpholin-4-yl)pyrazolo[1,5-a]-pyrimidine] | > 1 µM | > 1 µM | > 1 µM | < 0.1 µM | 1290 ng·h/mL | 200 ng/mL | 2 h |  |  | 
3 | CC(C)(C)N1CCN(Cc2cc3nc(-c4c(F)ccc5[nH]ccc45)cc(N4CCOCC4)n3n2)CC1 [Example 11, 2-((4-tert-butylpiperazin-1-yl)-methyl)-5-(5-fluoro-1H-indol-4-yl)-7-(morpholin-4-yl)pyrazolo[1,5-a]-pyrimidine] | > 1 µM | > 1 µM |  |  | 1250 ng·h/mL | 300 ng/mL | 2 h | > 1 µM | < 0.1 µM | 
4 | CC(C)(C)N1CCN(Cc2cc3nc(-n4c(C(F)F)nc5ccccc54)cc(N4CCOCC4)n3n2)CC1 [Example 50, 5-(2-(difluoromethyl)benzimidazol-1-yl)-2-((4-tert-butylpiperazin-1-yl)methyl)-7-(morpholin-4-yl)-pyrazolo[1,5-a]pyrimidine] | 0.1 to 1 µM |  |  |  | 5030 ng·h/mL | 900 ng/mL | 2 h | > 1 µM | < 0.1 µM | > 1 µM
5 | FC(F)c1nc2ccccc2n1-c1cc(N2CCOCC2)n2nc(CN3CC(N4CCC(F)(F)CC4)C3)cc2n1 [Example 66, 5-(2-(difluoromethyl)benzimidazol-1-yl)-2-((3-(4,4-difluoropiperidin-1-yl)azetidin-1-yl)methyl)-7-(morpholin-4-yl)pyrazolo[1,5-a]-pyrimidine] | 0.1 to 1 µM |  |  |  |  |  |  | > 1 µM | < 0.1 µM | > 1 µM
6 | Cc1c(CN2CCN(C(C)(C)C)CC2)nn2c(N3CCOCC3)cc(-n3c(C(F)F)nc4ccccc43)nc12 [Example 68, 5-(2-(difluoromethyl)benzimidazol-1-yl)-3-methyl-2-((4-tert-butylpiperazin-1-yl)methyl)-7-(morpholin-4-yl)pyrazolo[1,5-a]-pyrimidine] | 0.1 to 1 µM |  |  |  |  |  |  | > 1 µM | < 0.1 µM | > 1 µM
7 | Cc1c(CN2CCC(C(C)(C)O)CC2)nn2c(N3CCOCC3)cc(-n3c(C(F)F)nc4ccccc43)nc12 [Example 69, 5-(2-(difluoromethyl)benzimidazol-1-yl)-3-methyl-2-((4-(2-hydroxy-propan-2-yl)piperidin-1-yl)methyl)-7-(morpholin-4-yl)pyrazolo[1,5-a]-pyrimidine] | 0.1 to 1 µM |  |  |  |  |  |  | > 1 µM | < 0.1 µM | > 1 µM
8 | CC(C)(C)N1CCN(C(=O)c2cc3nc(-c4cccc5[nH]ccc45)cc(N4CCOCC4)n3n2)CC1 [Example 70, 2-(4-tert-butylpiperazin-1-ylcarbonyl)-5-(1H-indol-4-yl)-7-(morpholin-4-yl)pyrazolo[1,5-a]pyrimidine] | > 1 µM |  |  |  |  |  |  | > 1 µM | < 0.1 µM | > 1 µM
9 | CC(C)(C)N1CCN(Cc2nn3c(N4CCOCC4)cc(-n4c(C(F)F)nc5ccccc54)nc3c2Cl)CC1 [Example 71, 5-(2-(difluoromethyl)benzimidazol-1-yl)-3-chloro-2-((4-tert-butylpiperazin-1-yl)methyl)-7-(morpholin-4-yl)pyrazolo[1,5-a]pyrimidine] | 0.1 to 1 µM |  |  |  |  |  |  | > 1 µM | < 0.1 µM | > 1 µM
